Where a name gives a salt, the structure may show the parent alone.
target: T1, hCCR2b (Homo sapiens, UniProt P41597); assay: CCR2 binding assay ([125I]MCP-1, SPA, CHO cell membranes); parameters: expressed in transfected cells; host or cells: CHO cells (membrane preparation); conditions: membranes from CHO cells expressing hCCR2b, 50 pM [125I]MCP-1; read-out: Binding hCCR2 (Ki)
T1 sequence (P41597 1-360 isoform P41597-2): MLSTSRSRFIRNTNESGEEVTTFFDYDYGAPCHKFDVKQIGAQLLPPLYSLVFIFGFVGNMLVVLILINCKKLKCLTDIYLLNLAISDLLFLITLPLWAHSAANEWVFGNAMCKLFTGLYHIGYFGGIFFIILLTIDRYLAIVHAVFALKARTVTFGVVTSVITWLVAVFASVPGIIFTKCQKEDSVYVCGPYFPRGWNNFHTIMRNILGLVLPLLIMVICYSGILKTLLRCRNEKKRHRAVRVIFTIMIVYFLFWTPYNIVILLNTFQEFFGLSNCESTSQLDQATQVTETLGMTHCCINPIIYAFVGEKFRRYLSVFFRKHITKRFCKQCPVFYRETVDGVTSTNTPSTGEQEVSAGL
Experimental: Membranes were prepared from CHO cells expressing mCCR2b or hCCR2b for use in ligand binding studies. Cells were suspended in 50mM Tris-HCL, pH 7.4, 2 mM EDTA, 250 mM Sucrose and 1x Complete EDTA-free protease inhibitor cocktail (Roche) (Buffer A), and disrupted at 4°C by N2 decompression using a cell disruption bomb (Parr Instrument). Following centrifugation at 200 RCF for 10 min at 4°C, the supernatant was suspended in buffer A and centrifuged again at 19000 RPM (RCSC rotor SS34 code 05 Sorvall Instruments DUPONT) for 90 min at 4°C. The pellet was then suspended in 10 mM HEPES, pH 7.4, 1 mM EDTA, 250 mM Sucrose, and 1x Complete EDTA-free protease inhibitor cocktail (Buffer B) and homogenized using a potter. Membranes were flash frozen in liquid N2 and stored at -80°C. [125I] Monocyte Chemoattractant Protein -1 (MCP-1) (25µCi; Perkin Elmer) was added to test compounds in DMSO (1% final). Membranes and WGA SPA beads (GE Healthcare) were added to give a final volume of 100 µl in 96-well plates with assay concentrations of 50 pM or 100 pM [125I]Monocyte Chemoattractant Protein -1 (respectively for hCCR2b or mCCR2b), 50 mM HEPES, pH 7.4, 5 mM MgCl2, 1 mM CaCl2, 0.1% BSA, 1-5 µg/well of membranes and 100 µg/well of WGA SPA beads. Binding was performed for 90 min at RT with strong agitation of speed 5 (Heidolph Titramax 100 SCITEC) and bound radioactivity was measured on a PerkinElmer 1450 MicroBeta counter. Specific binding was calculated by subtracting remaining radioactivity in the presence of 1000-fold excess of unlabeled compound. Binding data were analyzed using the Genedata Screener® software.

Ki | Structure (SMILES)
500 to 2000 nM | CC1=C(C(=O)N2CCN(c3cccc(C(F)(F)F)c3)CC2)C2(CCN(Cc3cc4ccccc4[nH]3)CC2)OC1=O [Compound 107, 8-(1H-indol-2-ylmethyl)-3-methyl-4-({4-[3-(trifluoromethyl)phenyl]piperazin-1-yl}carbonyl)-1-oxa-8-azaspiro[4.5]dec-3-en-2-one]
50 to 100 nM | CCN1CCC2(CC1)OC(=O)C(C)=C2C(=O)N1CCCN(c2cccc(C(F)(F)F)c2)CC1 [Compound 90, 8-ethyl-3-methyl-4-({4-[3-(trifluoromethyl)phenyl]-1,4-diazepan-1-yl}carbonyl)-1-oxa-8-azaspiro[4.5]dec-3-en-2-one]
< 50 nM | CC1=C(C(=O)N2CCN(c3cccc(C(F)(F)F)c3)CC2)C2(CCN(CC3CCOC3)CC2)OC1=O (stereo not shown) [Compound 22, 3-methyl-8-(tetrahydrofuran-3-ylmethyl)-4-({4-[3-(trifluoromethyl)phenyl]piperazin-1-yl}carbonyl)-1-oxa-8-azaspiro[4.5]dec-3-en-2-one]
100 to 500 nM | CC1=C(C(=O)N2CCN(c3cccc(C(F)(F)F)c3)CC2)C2(CCN(CCc3ccccc3Cl)CC2)OC1=O [Compound 14, 8-[2-(2-chlorophenyl)ethyl]-3-methyl-4-({4-[3-(trifluoromethyl)phenyl]piperazin-1-yl}carbonyl)-1-oxa-8-azaspiro[4.5]dec-3-en-2-one]
< 50 nM | CC1=C(C(=O)N2CCN(c3cccc(C(F)(F)F)c3)CC2)C2(CCN(CCc3ccc(Cl)cc3)CC2)OC1=O [Compound 13, 8-[2-(4-chlorophenyl)ethyl]-3-methyl-4-({4-[3-(trifluoromethyl)phenyl]piperazin-1-yl}carbonyl)-1-oxa-8-azaspiro[4.5]dec-3-en-2-one]
< 50 nM | CC1=C(C(=O)N2CCN(c3cccc(C(F)(F)F)c3)CC2)C2(CCN(CCc3ccc(F)cc3)CC2)OC1=O [Example 3, 8-[2-(4-fluorophenyl)ethyl]-3-methyl-4-({4-[3-(trifluoromethyl)phenyl]piperazin-1-yl}carbonyl)-1-oxa-8-azaspiro[4.5]dec-3-en-2-one]
50 to 100 nM | COC(CN1CCC2(CC1)OC(=O)C(C)=C2C(=O)N1CCN(c2cccc(C(F)(F)F)c2)CC1)c1ccccc1 (stereo not shown) [Compound 7, 8-(2-methoxy-2-phenylethyl)-3-methyl-4-({4-[3-(trifluoromethyl)phenyl]piperazin-1-yl}carbonyl)-1-oxa-8-azaspiro[4.5]dec-3-en-2-one]
100 to 500 nM | CCN1CCC2(CC1)OC(=O)C(C)=C2C(=O)N1CCC(c2cccc(C(F)(F)F)c2)CC1 [Compound 94, 8-ethyl-3-methyl-4-({4-[3-(trifluoromethyl)phenyl]piperidin-1-yl}carbonyl)-1-oxa-8-azaspiro[4.5]dec-3-en-2-one]
< 50 nM | CC1=C(C(=O)N2CCN(c3cccc(C(F)(F)F)c3)CC2)C2(CCN(C(C)C)C2)OC1=O (stereo not shown) [Compound 117, 7-isopropyl-3-methyl-4-({4-[3-(trifluoromethyl)phenyl]piperazin-1-yl}carbonyl)-1-oxa-7-azaspiro[4.4]non-3-en-2-one]
< 50 nM | CCN1CCCC2(CC1)OC(=O)C(C)=C2C(=O)N1CCN(c2cccc(C(F)(F)F)c2)CC1 (stereo not shown) [Compound 121, 8-ethyl-3-methyl-4-({4-[3-(trifluoromethyl)phenyl]piperazin-1-yl}carbonyl)-1-oxa-8-azaspiro[4.6]undec-3-en-2-one]
100 to 500 nM | CC1=C(C(=O)N2CCN(c3cccc(C(F)(F)F)c3)CC2)C2(CCN(CC(=O)O)CC2)OC1=O [Compound 9, [3-methyl-2-oxo-4-({4-[3-(trifluoromethyl)phenyl]piperazin-1-yl}carbonyl)-1-oxa-8-azaspiro[4.5]dec-3-en-8-yl]acetic acid]
< 50 nM | CCN1CCC2(CC1)OC(=O)C(C)=C2C(=O)N1CCN(c2ccc(Cl)c(C(F)(F)F)c2)CC1 [Compound 82, 4-({4-[4-chloro-3-(trifluoromethyl)phenyl]piperazin-1-yl}carbonyl)-8-ethyl-3-methyl-1-oxa-8-azaspiro[4.5]dec-3-en-2-one]
500 to 2000 nM | CCN1CCC2(CC1)OC(=O)C(C)=C2C(=O)N1CCN(c2cccc(C)c2)CC1 [Compound 68, 8-ethyl-3-methyl-4-{[4-(3-methylphenyl)piperazin-1-yl]carbonyl}-1-oxa-8-azaspiro[4.5]dec-3-en-2-one]
100 to 500 nM | CC1=C(C(=O)N2CCN(c3cccc(C(F)(F)F)c3)CC2)C2(CCNCC2)OC1=O [Example 1, 3-methyl-4-({4-[3-(trifluoromethyl)phenyl]piperazin-1-yl}carbonyl)-1-oxa-8-azaspiro[4.5]dec-3-en-2-one, dihydrochloride salt]

Continued, compound first:

Structure (SMILES) | Ki
CC1=C(C(=O)N2CCc3ccc(C(F)(F)F)cc3C2)C2(CCN(C3CCCS(=O)(=O)C3)CC2)OC1=O (stereo not shown) [Compound 39, 8-(1,1-dioxidotetrahydro-2H-thiopyran-3-yl)-3-methyl-4-{[7-(trifluoromethyl)-3,4-dihydroisoquinolin-2(1H)-yl]carbonyl}-1-oxa-8-azaspiro[4.5]dec-3-en-2-one] | 50 to 100 nM
CC1=C(C(=O)NCC(=O)Nc2cccc(C(F)(F)F)c2)C2(CCN(C3CCOCC3)CC2)OC1=O [Compound 69, 3-methyl-2-oxo-N-(2-oxo-2-{[3-(trifluoromethyl)phenyl]amino}ethyl)-8-(tetrahydro-2H-pyran-4-yl)-1-oxa-8-azaspiro[4.5]dec-3-ene-4-carboxamide] | < 50 nM
CCN1CCC2(CC1)OC(=O)C(C)=C2C(=O)NCCc1ccc(C(F)(F)F)cc1 [Compound 100, 8-ethyl-3-methyl-2-oxo-N-{2-[4-(trifluoromethyl)phenyl]ethyl}-1-oxa-8-azaspiro[4.5]dec-3-ene-4-carboxamide] | 500 to 2000 nM
CC1=C(C(=O)NCc2ccc(C(F)(F)F)cc2)C2(CCN(C(C)C)CC2)OC1=O [Compound 64, 8-isopropyl-3-methyl-2-oxo-N-[4-(trifluoromethyl)benzyl]-1-oxa-8-azaspiro[4.5]dec-3-ene-4-carboxamide] | 500 to 2000 nM
CCN1CCC2(CC1)OC(=O)C(C)=C2C(=O)N1CCc2ncc(C(F)(F)F)cc2C1 [Compound 85, 8-ethyl-3-methyl-4-{[3-(trifluoromethyl)-7,8-dihydro-1,6-naphthyridin-6(5H)-yl]carbonyl}-1-oxa-8-azaspiro[4.5]dec-3-en-2-one] | < 50 nM
CCN1CCC2(CC1)OC(=O)C(C)=C2C(=O)NCCCc1cccc(C(F)(F)F)c1 [Compound 92, 8-ethyl-3-methyl-2-oxo-N-{3-[3-(trifluoromethyl)phenyl]propyl}-1-oxa-8-azaspiro[4.5]dec-3-ene-4-carboxamide] | 100 to 500 nM
CCN1CCC2(CC1)OC(=O)C(C)=C2C(=O)NCc1cccc(C(F)(F)F)c1 [Compound 89, 8-ethyl-3-methyl-2-oxo-N-[3-(trifluoromethyl)benzyl]-1-oxa-8-azaspiror[4.5]dec-3-ene-4-carboxamide] | 50 to 100 nM
CC1=C(C(=O)N2CCc3ccc(C(F)(F)F)cc3C2)C2(CCN(C3COC3)CC2)OC1=O [Compound 32, 3-methyl-8-oxetan-3-yl-4-{[7-(trifluoromethyl)-3,4-dihydroisoquinolin-2(1H)-yl]carbonyl}-1-oxa-8-azaspiro[4.5]dec-3-en-2-one] | 50 to 100 nM
CC1=C(C(=O)N2CCc3ccc(C(F)(F)F)cc3C2)C2(CCN(C3CCOC(C)(C)C3)CC2)OC1=O (stereo not shown) [Compound 35, 8-(2,2-dimethyltetrahydro-2H-pyran-4-yl)-3-methyl-4-{[7-(trifluoromethyl)-3,4-dihydroisoquinolin-2(1H)-yl]carbonyl}-1-oxa-8-azaspiro[4.5]dec-3-en-2-one] | < 50 nM
CC1=C(C(=O)N2CCN(c3cccc(C(F)(F)F)c3)CC2)C2(CCN(C3CCC(C(=O)O)CC3)CC2)OC1=O (stereo not shown) [Compound 24, 4-[3-methyl-2-oxo-4-({4-[3-(trifluoromethyl)phenyl]piperazin-1-yl}carbonyl)-1-oxa-8-azaspiro[4.5]dec-3-en-8-yl]cyclohexanecarboxylic acid] | 50 to 100 nM
CCN1CCC2(CC1)OC(=O)C(C)=C2C(=O)N1CCc2cccc(C(F)(F)F)c2C1 [Compound 51, 8-ethyl-3-methyl-4-{[8-(trifluoromethyl)-3,4-dihydroisoquinolin-2 (1H)-yl]carbonyl}-1-oxa-8-azaspiro[4.5]dec-3-en-2-one] | 500 to 2000 nM

From EP2508526A1, “Spiroalkene carboxamide derivatives and their use as chemokine receptor modulators” (Ares Trading SA, priority 2011, dated 2012)
